The values below come from article PMC7567103 (Nature Communications, 2020).

Holding throughout (assay type): cell-based
For one assay, the target named is T1, GHRHR L362A (Homo sapiens, UniProt Q02643, L362A).
T1 construct: GHRHR(23-423)-; HA signal peptide (replaces native signal M1-G22) (N); expressed in transfected cells; host or cells: HEK 293 T
Nature of the assay: cAMP accumulation, L362A. The note with it: mean ± SEM, n ≥ 3. The text has this: Fig. 2 Molecular recognition of GHRH by GHRHR and comparison of that with LA-PTH–PTH1R and GLP-1–GLP-1R. a Detailed interaction between GHRH and the TMD pocket of GHRHR with hydrogen bonds shown as dotted lines. b, c Pairwise comparison of GHRH bound to GHRHR with GLP-1 and LA-PTH in complex with their corresponding receptors, showing the relative positions of peptide ligands. Lime green, GHRHR; blue, GHRH; red, PTH1R and LA-PTH; purple, GLP-1R and GLP-1. d–f The effects of mutation in the ligand-binding pocket on cAMP accumulation. cAMP levels were measured in wild-type (WT) receptor and alanine mutants in ECL1, 2, and 3 (d), TM1, 2, and 3 (e), and TM5, 6, and 7 (f). cAMP signals were normalized to the maximum response of WT and concentration–response curves were analyzed using a three-parameter logistic equation. Data shown are means ± S.E.M. of at least three independent experiments (n = 3–5), conducted in triplicate. Source data are provided as a Source data file.
GHRH-stimulated cAMP accumulation was measured by a LANCE Ultra cAMP kit (PerkinElmer). […] After 1 h RT incubation, TR-FRET signals (excitation: 320 nm, emission: 615 and 665 nm) were measured by an EnVision (PerkinElmer).
For orientation: cAMP levels reflect the balance of adenylyl cyclase and phosphodiesterase activity.

The target of another assay is T2, GHRHR(23-423) (WT) (Homo sapiens, UniProt Q02643).
T2 construct: 24 h after transfection with GHRHR(23-423), GHRHR(23-405), GHRHR(23-405)-LgBiT-2MBP, or HA-Flag-GHRHR (WT and mutants); HA signal peptide (replaces native signal M1-G22) (N); expressed in transfected cells; host or cells: HEK 293 T
T2 sequence (Q02643 23-423): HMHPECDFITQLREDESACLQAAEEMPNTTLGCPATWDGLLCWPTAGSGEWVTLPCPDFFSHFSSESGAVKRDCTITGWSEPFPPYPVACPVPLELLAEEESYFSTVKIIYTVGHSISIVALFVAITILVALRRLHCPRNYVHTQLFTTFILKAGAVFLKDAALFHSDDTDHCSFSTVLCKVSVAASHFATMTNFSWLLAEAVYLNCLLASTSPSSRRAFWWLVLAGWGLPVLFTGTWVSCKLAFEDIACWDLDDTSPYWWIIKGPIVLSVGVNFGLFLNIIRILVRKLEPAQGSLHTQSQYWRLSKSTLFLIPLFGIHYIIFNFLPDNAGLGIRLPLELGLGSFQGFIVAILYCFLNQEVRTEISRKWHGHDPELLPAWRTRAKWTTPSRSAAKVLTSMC
Nature of the assay: cAMP accumulation, construct GHRHR(23-423) (WT) (Supplementary Fig. 2b). The following applies: HEK 293T; mean ± SEM, n = 8-10. As for the experimental part:
(§1) GHRH-stimulated cAMP accumulation was measured by a LANCE Ultra cAMP kit (PerkinElmer). Briefly, 24 h after transfection with GHRHR(23-423), GHRHR(23-405), GHRHR(23-405)-LgBiT-2MBP, or HA-Flag-GHRHR (WT and mutants), HEK 293 T cells (3000/well in 384-well white plates, PerkinElmer) were digested by 0.2% (w/v) EDTA and 5 μL stimulation buffer (HBSS supplemented with 5 mM HEPES, 0.5 mM IBMX, and 0.1% (w/v) BSA, pH 7.4). Different concentrations (5 μL) of GHRH were then added and the stimulation lasted for 30 min at RT. The reaction was stopped by adding 5 μL Eu-cAMP tracer and 5 μL ULight-anti-cAMP. After 1 h RT incubation, TR-FRET signals (excitation: 320 nm, emission: 615 and 665 nm) were measured by an EnVision (PerkinElmer).
(§2) 223 Supplementary Ta b l e 1. Effects of GHRH-mediated cAMP accumulation.
(§3) Receptor cAMP Cell surface expression Binding
(§4) pEC50 Emax (% WT) (% WT) pIC50 […]
(§5) 225 to determine pEC50 and Emax values. pEC50 is the negative logarithm of the molar
(§6) 226 concentration of agonist that induced half the maximal response. Cell surface […]
(§7) 228 Flag antibody (Sigma-Aldrich, 1:300); Donkey anti-Mouse Alexa Fluor 488-
(§8) 229 conjugated secondary antibody, (ThermoFisher Scientific, 1:1000)] on the […]
(§9) 231 Binding data were analyzed using a three-parameter logistic equation to […]
(§10) 234 determine statistical difference. *P<0.01; ND, not determined.

The next assay deals with T3, GHRHR(23-405) (Homo sapiens, UniProt Q02643).
T3 construct: 24 h after transfection with GHRHR(23-423), GHRHR(23-405), GHRHR(23-405)-LgBiT-2MBP, or HA-Flag-GHRHR (WT and mutants); HA signal peptide (replaces native signal M1-G22) (N); expressed in transfected cells; host or cells: HEK 293 T
Nature of the assay: cAMP accumulation, construct GHRHR(23-405) (Supplementary Fig. 2b). The following applies: HEK 293T; mean ± SEM, n = 8-10. On the procedure:
as §1, §2, §3, §4, §5, §6, §7, §8, §9, §10

Each structure is given as a SMILES string.

T1 sequence (Q02643 23-423 L362A): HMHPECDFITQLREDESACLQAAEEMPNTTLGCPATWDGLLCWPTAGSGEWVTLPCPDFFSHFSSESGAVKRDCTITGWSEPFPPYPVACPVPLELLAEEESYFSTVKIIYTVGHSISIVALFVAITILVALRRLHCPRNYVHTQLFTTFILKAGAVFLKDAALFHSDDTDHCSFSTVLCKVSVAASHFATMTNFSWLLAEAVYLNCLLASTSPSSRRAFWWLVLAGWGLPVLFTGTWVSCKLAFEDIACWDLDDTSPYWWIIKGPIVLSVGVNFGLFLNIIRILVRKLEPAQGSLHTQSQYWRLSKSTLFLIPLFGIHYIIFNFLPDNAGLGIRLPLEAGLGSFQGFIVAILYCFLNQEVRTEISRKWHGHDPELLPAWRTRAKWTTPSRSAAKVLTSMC

Regarding `CC[C@H](C)[C@H](NC(=O)[C@H](C)NC(=O)[C@H](CC(=O)O)NC(=O)[C@H](C)NC(=O)[C@@H](N)Cc1ccc(O)cc1)C(=O)N[C@@H](Cc1ccccc1)C(=O)N[C@H](C(=O)N[C@@H](CC(N)=O)C(=O)N[C@@H](CO)C(=O)N[C@@H](Cc1ccc(O)cc1)C(=O)N[C@@H](CCCNC(=N)N)C(=O)N[C@@H](CCCCN)C(=O)N[C@H](C(=O)N[C@@H](CC(C)C)C(=O)NCC(=O)N[C@@H](CCC(N)=O)C(=O)N[C@@H](CC(C)C)C(=O)N[C@@H](CO)C(=O)N[C@@H](C)C(=O)N[C@@H](CCCNC(=N)N)C(=O)N[C@@H](CCCCN)C(=O)N[C@@H](CC(C)C)C(=O)N[C@@H](CC(C)C)C(=O)N[C@@H](CCC(N)=O)C(=O)N[C@@H](CC(=O)O)C(=O)N[C@H](C(=O)N[C@@H](CCSC)C(=O)N[C@@H](CO)C(=O)N[C@@H](CCCNC(=N)N)C(=O)N[C@@H](CCC(N)=O)C(=O)N[C@@H](CCC(N)=O)C(=O)NCC(=O)N[C@@H](CCC(=O)O)C(=O)N[C@@H](CO)C(=O)N[C@@H](CC(N)=O)C(=O)N[C@@H](CCC(N)=O)C(=O)N[C@@H](CCC(=O)O)C(=O)N[C@@H](CCCNC(=N)N)C(=O)NCC(=O)N[C@@H](C)C(=O)N[C@@H](CCCNC(=N)N)C(=O)N[C@@H](C)C(=O)N[C@@H](CCCNC(=N)N)C(=O)N[C@@H](CC(C)C)C(N)=O)[C@@H](C)CC)C(C)C)[C@@H](C)O` [GHRH, Growth hormone-releasing hormone], the EC50 on GHRHR L362A is 0.112 nM; on GHRHR(23-423) (WT) it was 0.631 nM; on GHRHR(23-405) it was 0.871 nM. The Emax on GHRHR L362A is recorded as 103.97±0.47 % WT; at GHRHR(23-423) (WT), 100 % WT; at GHRHR(23-405), 120.55±1.97 % WT.

Broadly, the EC50 is the concentration that produces a half-maximal response. Lower therefore signals a more potent agent.
